{"source": "paper PMC10174618", "about": "“Monoterpenoid aryl hydrocarbon receptor allosteric antagonists protect against ultraviolet skin damage in female mice” (Nature Communications, 2023)", "test_in_all_cases": "biochemical", "design_in_all_cases": "KINOMEscan scanMAX active site-directed competition binding assay, percent of control, 468 kinases", "conditions_in_all_cases": "competition binding, percent of control", "key": {"[1]": {"biological_target": "T1, SNARK (Homo sapiens, UniProt Q9H093)", "T1 construct": "gene NUAK2", "summary_of_the_method": "(§1)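 KINOMEscan active site-directed competition binding assay against 468 human kinases with 100 μM S-carvone. Binding expressed as % of control, with 35% of control as the inhibition threshold.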"}, "[2]": {"biological_target": "T2, CDC2L1 (Homo sapiens, UniProt P21127)", "T2 construct": "gene CDK11B", "summary_of_the_method": "as §1"}, "[3]": {"biological_target": "PRKG1 (Homo sapiens, UniProt Q13976)", "sequence (Q13976 whole entry)": "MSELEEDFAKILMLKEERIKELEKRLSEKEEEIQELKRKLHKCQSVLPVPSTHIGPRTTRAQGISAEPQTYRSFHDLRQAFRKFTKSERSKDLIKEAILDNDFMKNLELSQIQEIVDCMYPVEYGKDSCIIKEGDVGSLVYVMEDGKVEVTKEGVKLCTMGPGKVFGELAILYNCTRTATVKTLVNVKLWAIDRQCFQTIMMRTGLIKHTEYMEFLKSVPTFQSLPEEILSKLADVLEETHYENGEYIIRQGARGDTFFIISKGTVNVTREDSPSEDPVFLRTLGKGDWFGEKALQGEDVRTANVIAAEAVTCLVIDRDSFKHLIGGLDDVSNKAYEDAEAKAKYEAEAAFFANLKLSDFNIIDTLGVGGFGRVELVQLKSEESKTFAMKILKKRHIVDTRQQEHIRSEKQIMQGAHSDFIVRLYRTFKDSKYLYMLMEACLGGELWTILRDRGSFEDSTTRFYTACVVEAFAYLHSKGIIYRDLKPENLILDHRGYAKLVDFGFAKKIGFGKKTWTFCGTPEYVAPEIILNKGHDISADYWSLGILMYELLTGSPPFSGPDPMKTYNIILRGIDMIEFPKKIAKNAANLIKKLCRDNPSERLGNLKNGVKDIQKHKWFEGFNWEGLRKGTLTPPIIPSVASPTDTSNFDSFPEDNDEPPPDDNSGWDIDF", "summary_of_the_method": "as §1"}, "[4]": {"biological_target": "KIT(V559D,V654A) (Homo sapiens, UniProt P10721, V559D/V654A)", "sequence (P10721 whole entry V559D/V654A)": "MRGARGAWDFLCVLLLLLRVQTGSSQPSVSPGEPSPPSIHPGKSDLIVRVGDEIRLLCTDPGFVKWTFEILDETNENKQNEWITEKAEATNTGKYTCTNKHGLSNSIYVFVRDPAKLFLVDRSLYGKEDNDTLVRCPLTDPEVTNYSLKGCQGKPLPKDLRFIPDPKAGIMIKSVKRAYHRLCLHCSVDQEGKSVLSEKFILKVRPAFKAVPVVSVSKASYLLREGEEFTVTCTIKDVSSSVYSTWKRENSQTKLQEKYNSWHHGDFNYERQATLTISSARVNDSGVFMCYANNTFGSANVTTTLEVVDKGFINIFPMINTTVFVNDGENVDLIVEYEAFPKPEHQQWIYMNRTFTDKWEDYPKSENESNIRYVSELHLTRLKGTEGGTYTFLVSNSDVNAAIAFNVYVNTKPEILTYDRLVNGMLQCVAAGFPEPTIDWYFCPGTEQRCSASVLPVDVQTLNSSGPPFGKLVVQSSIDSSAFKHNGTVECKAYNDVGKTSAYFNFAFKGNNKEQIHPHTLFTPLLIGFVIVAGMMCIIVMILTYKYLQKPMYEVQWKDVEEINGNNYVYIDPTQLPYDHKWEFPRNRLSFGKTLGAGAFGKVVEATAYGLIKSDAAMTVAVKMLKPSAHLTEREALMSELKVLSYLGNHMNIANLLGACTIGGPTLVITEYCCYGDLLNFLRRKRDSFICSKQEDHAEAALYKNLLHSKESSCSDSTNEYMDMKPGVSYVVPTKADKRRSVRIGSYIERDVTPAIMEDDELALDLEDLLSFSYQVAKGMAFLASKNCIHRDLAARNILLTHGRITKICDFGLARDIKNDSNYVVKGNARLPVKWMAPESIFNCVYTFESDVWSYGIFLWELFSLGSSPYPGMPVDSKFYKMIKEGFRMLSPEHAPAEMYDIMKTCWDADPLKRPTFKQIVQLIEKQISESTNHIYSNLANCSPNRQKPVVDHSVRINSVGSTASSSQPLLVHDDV", "summary_of_the_method": "as §1"}, "[5]": {"biological_target": "T3, ABL1(F317L)-nonphosphorylated (Homo sapiens, UniProt P00519, F317L)", "T3 construct": "nonphosphorylated", "summary_of_the_method": "as §1"}, "[6]": {"biological_target": "FLT4 (Homo sapiens, UniProt P35916)", "summary_of_the_method": "as §1"}, "[7]": {"biological_target": "T4, ERK5 (Homo sapiens, UniProt Q13164)", "T4 construct": "gene MAPK7", "summary_of_the_method": "as §1"}, "[8]": {"biological_target": "MELK (Homo sapiens, UniProt Q14680)", "summary_of_the_method": "as §1"}, "[9]": {"biological_target": "CSNK1G2 (Homo sapiens, UniProt P78368)", "summary_of_the_method": "as §1"}, "[10]": {"biological_target": "T5, ABL1(F317I)-nonphosphorylated (Homo sapiens, UniProt P00519, F317I)", "T5 construct": "nonphosphorylated", "summary_of_the_method": "as §1"}, "[11]": {"biological_target": "MAPKAPK2 (Homo sapiens, UniProt P49137)", "sequence (P49137 whole entry)": "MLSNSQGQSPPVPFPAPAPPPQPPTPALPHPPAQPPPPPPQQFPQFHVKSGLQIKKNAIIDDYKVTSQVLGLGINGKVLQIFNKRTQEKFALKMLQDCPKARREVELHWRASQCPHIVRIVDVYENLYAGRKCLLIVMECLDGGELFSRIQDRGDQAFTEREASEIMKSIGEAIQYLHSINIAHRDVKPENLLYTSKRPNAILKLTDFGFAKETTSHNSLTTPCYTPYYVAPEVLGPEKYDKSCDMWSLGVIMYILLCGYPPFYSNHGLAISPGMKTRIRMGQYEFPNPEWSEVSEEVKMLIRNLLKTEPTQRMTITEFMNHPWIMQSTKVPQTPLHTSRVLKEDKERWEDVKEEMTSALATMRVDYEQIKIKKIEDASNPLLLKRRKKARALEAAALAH", "summary_of_the_method": "as §1"}, "[12]": {"biological_target": "T6, DRAK2 (Homo sapiens, UniProt O94768)", "T6 construct": "gene STK17B", "T6 sequence (O94768 whole entry)": "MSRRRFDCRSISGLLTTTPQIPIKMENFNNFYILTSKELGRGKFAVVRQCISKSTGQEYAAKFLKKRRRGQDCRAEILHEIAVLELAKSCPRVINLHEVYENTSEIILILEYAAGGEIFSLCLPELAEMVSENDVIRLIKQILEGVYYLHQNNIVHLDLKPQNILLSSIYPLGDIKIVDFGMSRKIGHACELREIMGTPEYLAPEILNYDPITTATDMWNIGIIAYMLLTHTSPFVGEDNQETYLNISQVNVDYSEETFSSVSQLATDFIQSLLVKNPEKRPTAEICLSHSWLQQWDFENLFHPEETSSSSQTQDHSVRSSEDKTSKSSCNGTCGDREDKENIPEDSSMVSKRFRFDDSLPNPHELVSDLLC", "summary_of_the_method": "as §1"}, "[13]": {"biological_target": "T7, AMPK-alpha1 (Homo sapiens, UniProt Q13131)", "T7 construct": "gene PRKAA1", "summary_of_the_method": "as §1"}, "[14]": {"biological_target": "DDR1 (Homo sapiens, UniProt Q08345)", "summary_of_the_method": "as §1"}, "[15]": {"biological_target": "T8, ABL1-nonphosphorylated (Homo sapiens, UniProt P00519)", "T8 construct": "nonphosphorylated", "summary_of_the_method": "as §1"}, "[16]": {"biological_target": "MYLK4 (Homo sapiens, UniProt Q86YV6)", "summary_of_the_method": "as §1"}, "[17]": {"biological_target": "GSK3A (Homo sapiens, UniProt P49840)", "summary_of_the_method": "as §1"}, "[18]": {"biological_target": "IGF1R (Homo sapiens, UniProt P08069)", "summary_of_the_method": "as §1"}, "[19]": {"biological_target": "ULK1 (Homo sapiens, UniProt O75385)", "summary_of_the_method": "as §1"}, "[20]": {"biological_target": "MAP3K4 (Homo sapiens, UniProt Q9Y6R4)", "sequence (Q9Y6R4 whole entry)": "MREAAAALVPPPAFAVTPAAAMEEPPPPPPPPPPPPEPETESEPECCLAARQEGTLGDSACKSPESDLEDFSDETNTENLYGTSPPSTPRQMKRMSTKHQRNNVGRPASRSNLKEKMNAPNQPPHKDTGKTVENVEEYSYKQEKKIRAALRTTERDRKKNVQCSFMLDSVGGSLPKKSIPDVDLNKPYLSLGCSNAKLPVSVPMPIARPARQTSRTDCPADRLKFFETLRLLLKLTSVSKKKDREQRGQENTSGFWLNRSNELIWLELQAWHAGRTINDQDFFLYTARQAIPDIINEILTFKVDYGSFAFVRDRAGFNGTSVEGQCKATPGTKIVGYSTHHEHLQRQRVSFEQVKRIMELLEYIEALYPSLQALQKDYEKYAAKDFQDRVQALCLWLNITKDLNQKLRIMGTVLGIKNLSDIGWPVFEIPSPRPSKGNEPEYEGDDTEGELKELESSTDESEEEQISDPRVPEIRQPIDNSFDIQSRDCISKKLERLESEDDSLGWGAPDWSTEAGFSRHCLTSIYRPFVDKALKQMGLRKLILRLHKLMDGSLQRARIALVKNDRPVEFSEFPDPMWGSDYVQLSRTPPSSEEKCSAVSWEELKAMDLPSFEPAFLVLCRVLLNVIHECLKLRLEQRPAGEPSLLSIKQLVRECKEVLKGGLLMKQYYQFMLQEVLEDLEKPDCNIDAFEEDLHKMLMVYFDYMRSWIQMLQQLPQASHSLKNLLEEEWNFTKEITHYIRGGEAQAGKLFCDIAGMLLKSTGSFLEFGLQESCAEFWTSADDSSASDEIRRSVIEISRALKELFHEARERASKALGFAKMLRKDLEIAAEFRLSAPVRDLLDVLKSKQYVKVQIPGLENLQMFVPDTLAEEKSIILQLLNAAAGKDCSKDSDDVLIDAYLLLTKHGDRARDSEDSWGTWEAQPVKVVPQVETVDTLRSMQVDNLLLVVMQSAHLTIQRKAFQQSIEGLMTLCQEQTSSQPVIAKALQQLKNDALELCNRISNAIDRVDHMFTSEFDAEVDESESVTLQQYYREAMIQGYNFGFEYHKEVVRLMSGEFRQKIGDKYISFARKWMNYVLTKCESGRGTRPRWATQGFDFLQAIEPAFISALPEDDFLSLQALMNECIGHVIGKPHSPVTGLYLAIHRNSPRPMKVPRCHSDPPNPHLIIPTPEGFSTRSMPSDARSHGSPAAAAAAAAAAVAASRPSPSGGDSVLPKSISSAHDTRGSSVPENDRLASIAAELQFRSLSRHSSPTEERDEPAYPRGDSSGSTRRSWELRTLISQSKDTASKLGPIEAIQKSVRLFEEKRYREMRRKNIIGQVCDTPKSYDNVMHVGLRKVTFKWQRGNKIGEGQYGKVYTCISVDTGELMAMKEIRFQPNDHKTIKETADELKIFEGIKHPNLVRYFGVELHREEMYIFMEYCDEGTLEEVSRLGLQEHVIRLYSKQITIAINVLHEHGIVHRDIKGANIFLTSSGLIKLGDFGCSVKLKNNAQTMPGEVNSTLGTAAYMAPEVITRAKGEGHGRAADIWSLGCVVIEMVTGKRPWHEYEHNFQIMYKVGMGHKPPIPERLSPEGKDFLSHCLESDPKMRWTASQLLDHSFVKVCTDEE", "summary_of_the_method": "as §1"}, "[21]": {"biological_target": "NEK5 (Homo sapiens, UniProt Q6P3R8)", "sequence (Q6P3R8 whole entry)": "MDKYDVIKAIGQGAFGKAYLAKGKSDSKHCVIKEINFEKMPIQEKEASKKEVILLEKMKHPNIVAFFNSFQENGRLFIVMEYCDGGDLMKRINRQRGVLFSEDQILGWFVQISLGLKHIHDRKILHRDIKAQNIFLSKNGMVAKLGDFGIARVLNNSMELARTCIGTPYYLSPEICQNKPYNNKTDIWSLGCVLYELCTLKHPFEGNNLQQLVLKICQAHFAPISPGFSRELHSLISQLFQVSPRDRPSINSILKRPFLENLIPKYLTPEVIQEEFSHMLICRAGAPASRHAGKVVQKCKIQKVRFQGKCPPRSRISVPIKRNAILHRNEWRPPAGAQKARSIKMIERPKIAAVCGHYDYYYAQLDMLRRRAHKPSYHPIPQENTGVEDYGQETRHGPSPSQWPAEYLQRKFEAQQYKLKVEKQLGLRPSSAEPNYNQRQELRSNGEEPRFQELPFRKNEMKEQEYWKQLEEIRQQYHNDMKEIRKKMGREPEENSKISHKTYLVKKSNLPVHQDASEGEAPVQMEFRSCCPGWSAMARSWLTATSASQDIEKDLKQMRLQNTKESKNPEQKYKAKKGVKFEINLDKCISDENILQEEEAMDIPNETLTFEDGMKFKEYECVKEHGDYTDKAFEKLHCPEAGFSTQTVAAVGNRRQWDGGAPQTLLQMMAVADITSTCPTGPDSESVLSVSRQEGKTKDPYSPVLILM", "summary_of_the_method": "as §1"}}}
{"smiles": "C=C(C)[C@H]1CC=C(C)C(=O)C1", "note": "[S-carvone]", "values": [{"measurement": "remaining binding at 100 µM", "setting": "[1]", "value": 81, "unit": "%"}, {"measurement": "remaining binding at 100 µM", "setting": "[2]", "value": 90, "unit": "%"}, {"measurement": "remaining binding at 100 µM", "setting": "[3]", "value": 84, "unit": "%"}, {"measurement": "remaining binding at 100 µM", "setting": "[4]", "value": 80, "unit": "%"}, {"measurement": "remaining binding at 100 µM", "setting": "[5]", "value": 78, "unit": "%"}, {"measurement": "remaining binding at 100 µM", "setting": "[6]", "value": 90, "unit": "%"}, {"measurement": "remaining binding at 100 µM", "setting": "[7]", "value": 93, "unit": "%"}, {"measurement": "remaining binding at 100 µM", "setting": "[8]", "value": 99, "unit": "%"}, {"measurement": "remaining binding at 100 µM", "setting": "[9]", "value": 87, "unit": "%"}, {"measurement": "remaining binding at 100 µM", "setting": "[10]", "value": 64, "unit": "%"}, {"measurement": "remaining binding at 100 µM", "setting": "[11]", "value": 77, "unit": "%"}, {"measurement": "remaining binding at 100 µM", "setting": "[12]", "value": 98, "unit": "%"}, {"measurement": "remaining binding at 100 µM", "setting": "[13]", "value": 89, "unit": "%"}, {"measurement": "remaining binding at 100 µM", "setting": "[14]", "value": 90, "unit": "%"}, {"measurement": "remaining binding at 100 µM", "setting": "[15]", "value": 76, "unit": "%"}, {"measurement": "remaining binding at 100 µM", "setting": "[16]", "value": 93, "unit": "%"}, {"measurement": "remaining binding at 100 µM", "setting": "[17]", "value": 100, "unit": "%"}, {"measurement": "remaining binding at 100 µM", "setting": "[18]", "value": 82, "unit": "%"}, {"measurement": "remaining binding at 100 µM", "setting": "[19]", "value": 100, "unit": "%"}, {"measurement": "remaining binding at 100 µM", "setting": "[20]", "value": 79, "unit": "%"}, {"measurement": "remaining binding at 100 µM", "setting": "[21]", "value": 93, "unit": "%"}]}
